Assay: release of API into water from dried API-biopolymer pellets, measured by UV/VIS spectroscopy
Type: physicochemical
Settings: from the dry biopolymer matrix, versus acetyl salicylic acid
Method: Briefly biopolymer suspensions were produced with a known quantity of API added to the suspensions. The suspensions with API were then dried as pellets. These pellets were then added to a known volume of water and aliquots of the water were removed periodically to determine the rate of release of the API. The API concentration was measured using UV/VIS spectroscopy. The sample was dried for 10 hours in air and 3 hours in the oven at 50° C. The acetaminophen concentration in dried materials was 29.58% w/w. This figure represents release of acetaminophen into water from the dried acetaminophen doped chitin suspension, where the concentration of acetaminophen, in g/L, is plotted against time, in minutes.

CC(=O)Nc1ccc(O)cc1 [acetaminophen]
release rate compared between drugs: slower release

— patent publication US20250248940A1, “Biopolymer Formulations for Drug Delivery” (11584022 Canada Inc., priority 2022, published 2025)
